In PubChem BioAssay AID330 (DTP/NCI, 2004):
Where “and” joins values, the source holds several entries; their conditions need not be identical. Equal entries are not always repeated. Toxic doses and inconclusive results are not listed. How the source made its calls: active means survival T/C of 150% or more; inactive means T/C below 125% in these data.

System: P388 leukemia ip, CD2F1 mice, survival T/C
Assay: NCI In Vivo Anticancer Drug Screen. Data for tumor model P388 Leukemia (intraperitoneal) in CD2F1 (CDF1) mice
Conditions: endpoint: median survival time, higher = longer survival
How it was run: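 Mice carrying the transplanted tumor received test compound or vehicle. Survival was recorded in each group, and the value is the treated-group measurement divided by that of the vehicle-treated control group.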

[1] = dose: 100.0 mg/kg/injection, schedule: Q01DX005 (ip), vehicle: saline
[2] = dose: 200.0 mg/kg/injection, schedule: Q01DX005 (ip), vehicle: saline
[3] = dose: 50.0 mg/kg/injection, schedule: Q01DX009 (ip), vehicle: Klucel (hydroxypropylcellulose) (HPC)
[4] = dose: 100.0 mg/kg/injection, schedule: Q01DX009 (ip), vehicle: Klucel (hydroxypropylcellulose) (HPC)
[5] = dose: 200.0 mg/kg/injection, schedule: Q01DX009 (ip), vehicle: Klucel (hydroxypropylcellulose) (HPC)
[6] = dose: 50.0 mg/kg/injection, schedule: Q01DX009 (ip), vehicle: saline with Tween-80
[7] = dose: 50.0 mg/kg/injection, schedule: Q01DX009 (ip), vehicle: saline
[8] = dose: 100.0 mg/kg/injection, schedule: Q01DX009 (ip), vehicle: saline
[9] = dose: 100.0 mg/kg/injection, schedule: Q04DX003 (ip), vehicle: saline
[10] = dose: 100.0 mg/kg/injection, schedule: Q04DX003 (ip), vehicle: Klucel (hydroxypropylcellulose) (HPC)
[11] = dose: 200.0 mg/kg/injection, schedule: Q04DX003 (ip), vehicle: Klucel (hydroxypropylcellulose) (HPC)
[12] = dose: 400.0 mg/kg/injection, schedule: Q04DX003 (ip), vehicle: Klucel (hydroxypropylcellulose) (HPC)

Measured: T/C

Cn1nnc2c(C(N)=O)ncn2c1=O
225 % of control and 87 % of control: [2]
active: dose: 100.0 mg/kg/injection, schedule: Q01DX005 (ip), vehicle: saline with Tween-80 189 % of control | [1] 164 % of control and 217 % of control | dose: 200.0 mg/kg/injection, schedule: Q01DX005 (ip), vehicle: saline with Tween-80 254 % of control
inactive: dose: 25.0 mg/kg/injection, schedule: Q01DX005 (ip), vehicle: saline with Tween-80 118 % of control | dose: 25.0 mg/kg/injection, schedule: Q01DX005 (ip), vehicle: saline 119 % of control and 121 % of control

O=C1NC(=O)N2CCCOC2C1c1ccccc1 (stereo unspecified)
inactive: [3] 103 % of control | [4] 99 % of control | [5] 99 % of control

Clc1ccc2c(c1)CN1Cc3cc(Cl)ccc3C2C1
inactive: dose: 100.0 mg/kg/injection, schedule: Q01DX001 (ip), vehicle: saline with Tween-80 92 % of control | dose: 400.0 mg/kg/injection, schedule: Q01DX001 (ip), vehicle: saline with Tween-80 90 % of control

O=C1Nc2ncnc(Cl)c2Cc2ccccc21
inactive: [6] 100 % of control | dose: 100.0 mg/kg/injection, schedule: Q01DX009 (ip), vehicle: saline with Tween-80 104 % of control | dose: 200.0 mg/kg/injection, schedule: Q01DX009 (ip), vehicle: saline with Tween-80 104 % of control

CN=C(N)NN=C(c1ccc(I)cc1)c1ccc(I)cc1
inactive: dose: 25.0 mg/kg/injection, schedule: Q04DX002 (ip), vehicle: saline with Tween-80 104 % of control | dose: 50.0 mg/kg/injection, schedule: Q04DX002 (ip), vehicle: saline with Tween-80 106 % of control | dose: 100.0 mg/kg/injection, schedule: Q04DX002 (ip), vehicle: saline with Tween-80 104 % of control

NC(=O)c1c[n+]([O-])ccc1[N+](=O)[O-]
inactive: dose: 6.25 mg/kg/injection, schedule: Q01DX009 (ip), vehicle: Klucel (hydroxypropylcellulose) (HPC) 108 % of control | dose: 12.5 mg/kg/injection, schedule: Q01DX009 (ip), vehicle: Klucel (hydroxypropylcellulose) (HPC) 117 % of control | dose: 25.0 mg/kg/injection, schedule: Q01DX009 (ip), vehicle: Klucel (hydroxypropylcellulose) (HPC) 117 % of control | [3] 119 % of control

CC1=CC(=O)C2C1CC(=O)C1(C)C3C(=O)OC(C3C)C(O)C21 (stereo unspecified)
inactive: dose: 2.0 mg/kg/injection, schedule: Q01DX005 (ip), vehicle: Klucel (hydroxypropylcellulose) (HPC) 94 % of control | dose: 4.0 mg/kg/injection, schedule: Q01DX005 (ip), vehicle: Klucel (hydroxypropylcellulose) (HPC) 100 % of control | dose: 8.0 mg/kg/injection, schedule: Q01DX005 (ip), vehicle: Klucel (hydroxypropylcellulose) (HPC) 103 % of control | dose: 16.0 mg/kg/injection, schedule: Q01DX005 (ip), vehicle: Klucel (hydroxypropylcellulose) (HPC) 98 % of control | dose: 32.0 mg/kg/injection, schedule: Q01DX005 (ip), vehicle: Klucel (hydroxypropylcellulose) (HPC) 100 % of control

O=C(O)c1c[nH]c2cc(OCc3ccccc3)ccc2c1=O
inactive: [7] 99 % of control | [8] 98 % of control | dose: 200.0 mg/kg/injection, schedule: Q01DX009 (ip), vehicle: saline 103 % of control

O=C1c2ccc(-c3ccccc3)cc2C(=O)c2cc3c(cc21)OCO3
inactive: dose: 7.5 mg/kg/injection, schedule: Q01DX005 (ip), vehicle: saline with Tween-80 110 % of control | dose: 15.0 mg/kg/injection, schedule: Q01DX005 (ip), vehicle: saline with Tween-80 100 % of control | dose: 30.0 mg/kg/injection, schedule: Q01DX005 (ip), vehicle: saline with Tween-80 92 % of control

COc1ccc(C(=O)NC[n+]2ccccc2)cc1
inactive: dose: 25.0 mg/kg/injection, schedule: Q04DX003 (ip), vehicle: saline 100 % of control | dose: 50.0 mg/kg/injection, schedule: Q04DX003 (ip), vehicle: saline 100 % of control | [9] 104 % of control

CCCCCCCCCCCC(=O)c1c(O)cc(C)oc1=O
inactive: dose: 60.0 mg/kg/injection, schedule: Q01DX005 (ip), vehicle: Klucel (hydroxypropylcellulose) (HPC) 100 % of control | dose: 120.0 mg/kg/injection, schedule: Q01DX005 (ip), vehicle: Klucel (hydroxypropylcellulose) (HPC) 98 % of control | dose: 240.0 mg/kg/injection, schedule: Q01DX005 (ip), vehicle: Klucel (hydroxypropylcellulose) (HPC) 105 % of control

CCCNC(=O)N1C2C3CCC(C)(OC3(C)C)C21 (stereo unspecified)
inactive: dose: 50.0 mg/kg/injection, schedule: Q01DX005 (ip), vehicle: saline 106 % of control | [1] 100 % of control | [2] 98 % of control

CN(C)[C@@H]1C(=O)C(C(=O)NCNC(CO)(CO)CO)=C(O)[C@@]2(O)C(=O)C3=C(O)c4c(O)cccc4[C@@](C)(O)[C@H]3C[C@@H]12
inactive: dose: 25.0 mg/kg/injection, schedule: Q01DX009 (ip), vehicle: saline 100 % of control | [7] 95 % of control | [8] 100 % of control

O=C(CC(=O)C(F)(F)F)c1csc2ccccc12
inactive: dose: 12.5 mg/kg/injection, schedule: Q01DX009 (ip), vehicle: saline with Tween-80 95 % of control | dose: 12.5 mg/kg/injection, schedule: Q04DX003 (ip), vehicle: saline with Tween-80 100 % of control | dose: 25.0 mg/kg/injection, schedule: Q01DX009 (ip), vehicle: saline with Tween-80 100 % of control | dose: 25.0 mg/kg/injection, schedule: Q04DX003 (ip), vehicle: saline with Tween-80 100 % of control | [6] 109 % of control | dose: 50.0 mg/kg/injection, schedule: Q04DX003 (ip), vehicle: saline with Tween-80 109 % of control

COc1cc(C)c(OC)c(C/C=C(\C)CC2(O)C[C@@]3(C)CCC[C@@]3(C)C(=O)C2CC(C)(C)O)c1 (stereo partly specified)
inactive: dose: 5.0 mg/kg/injection, schedule: Q01DX005 (ip), vehicle: saline with Tween-80 92 % of control | dose: 10.0 mg/kg/injection, schedule: Q01DX005 (ip), vehicle: saline with Tween-80 95 % of control | dose: 20.0 mg/kg/injection, schedule: Q01DX005 (ip), vehicle: saline with Tween-80 93 % of control

Cn1c(=O)n(CCn2c(=O)n(C)c3ccccc32)c2ccccc21
inactive: dose: 100.0 mg/kg/injection, schedule: Q01DX001 (ip), vehicle: Klucel (hydroxypropylcellulose) (HPC) 91 % of control | dose: 200.0 mg/kg/injection, schedule: Q01DX001 (ip), vehicle: Klucel (hydroxypropylcellulose) (HPC) 92 % of control | dose: 400.0 mg/kg/injection, schedule: Q01DX001 (ip), vehicle: Klucel (hydroxypropylcellulose) (HPC) 91 % of control

CCC[CH2][Sn]([Cl])([Cl])[CH2]CCC
inactive: dose: 0.19 mg/kg/injection, schedule: Q01DX009 (ip), vehicle: saline with Tween-80 100 % of control | dose: 0.38 mg/kg/injection, schedule: Q01DX009 (ip), vehicle: saline with Tween-80 113 % of control | dose: 0.75 mg/kg/injection, schedule: Q01DX009 (ip), vehicle: saline with Tween-80 114 % of control and 120 % of control | dose: 1.5 mg/kg/injection, schedule: Q01DX009 (ip), vehicle: saline with Tween-80 112 % of control and 114 % of control | dose: 6.0 mg/kg/injection, schedule: Q01DX009 (ip), vehicle: saline with Tween-80 91 % of control | [9] 109 % of control
active: dose: 3.0 mg/kg/injection, schedule: Q01DX009 (ip), vehicle: saline with Tween-80 168 % of control

CC(C)(C)c1cc(C(=O)O)c(S)c(C(=O)O)c1
inactive: [3] 104 % of control and 109 % of control | [4] 102 % of control and 100 % of control | [5] 93 % of control

CC(=O)NS(=O)(=O)c1ccc(C)cc1
inactive: [10] 106 % of control | [11] 107 % of control | [12] 100 % of control

Clc1ccccc1CN1COc2c(ccc3ccccc23)C1
inactive: [10] 95 % of control | [11] 100 % of control | [12] 104 % of control

N#CC(C(=O)C(=O)NC1C2CC3CC(C2)CC1C3)c1c(Cl)cccc1Cl (stereo unspecified)
inactive: dose: 60.0 mg/kg/injection, schedule: Q01DX005 (ip), vehicle: saline with Tween-80 104 % of control | dose: 120.0 mg/kg/injection, schedule: Q01DX005 (ip), vehicle: saline with Tween-80 106 % of control | dose: 240.0 mg/kg/injection, schedule: Q01DX005 (ip), vehicle: saline with Tween-80 100 % of control

CC(=O)NC1C=CC(=O)O1 (stereo unspecified)
inactive: dose: 2.1 mg/kg/injection, schedule: Q01DX010 (ip), vehicle: saline 104 % of control
